Measured values published in ChEMBL document CHEMBL1129894, “Dihydroxypyrrolidines C-linked to galactose. Total synthesis of a specific inhibitor of -mannosidases” (Bioorg Med Chem Lett, 1997).
Activity calls are given as the source filed them. No cut-off for these calls is given here.

Key:
[1] = biological target: T1, Beta-galactosidase (Bos taurus) (UniProt Q58D55); assay: Inhibition of the enzyme beta-galactosidase from bovine liver was determined at 1 mM concentration of the compound; No inhibition
T1 sequence (whole entry): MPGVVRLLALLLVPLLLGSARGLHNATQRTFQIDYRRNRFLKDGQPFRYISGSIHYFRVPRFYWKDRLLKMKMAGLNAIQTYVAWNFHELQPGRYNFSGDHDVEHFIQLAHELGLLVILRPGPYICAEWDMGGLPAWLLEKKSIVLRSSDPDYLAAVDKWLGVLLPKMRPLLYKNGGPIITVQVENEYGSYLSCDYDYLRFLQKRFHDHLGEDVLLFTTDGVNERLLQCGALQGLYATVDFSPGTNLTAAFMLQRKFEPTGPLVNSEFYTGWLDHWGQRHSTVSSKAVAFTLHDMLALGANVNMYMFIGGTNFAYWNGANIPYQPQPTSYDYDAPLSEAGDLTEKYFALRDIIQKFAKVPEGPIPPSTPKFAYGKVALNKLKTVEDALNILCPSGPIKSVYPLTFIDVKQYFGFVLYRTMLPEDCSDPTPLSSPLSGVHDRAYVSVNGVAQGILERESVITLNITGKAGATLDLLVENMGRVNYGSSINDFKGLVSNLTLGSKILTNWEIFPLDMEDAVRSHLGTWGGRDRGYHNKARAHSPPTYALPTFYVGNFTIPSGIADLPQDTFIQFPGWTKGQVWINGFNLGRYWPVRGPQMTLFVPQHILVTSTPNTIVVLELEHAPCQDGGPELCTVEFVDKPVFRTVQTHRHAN

[2] = biological target: T2, Tissue alpha-L-fucosidase (Homo sapiens) (UniProt P04066); assay: Inhibition of the enzyme alpha-L-fucosidase from human placenta was determined at 1 mM concentration of the compound; No inhibition
T2 sequence (whole entry): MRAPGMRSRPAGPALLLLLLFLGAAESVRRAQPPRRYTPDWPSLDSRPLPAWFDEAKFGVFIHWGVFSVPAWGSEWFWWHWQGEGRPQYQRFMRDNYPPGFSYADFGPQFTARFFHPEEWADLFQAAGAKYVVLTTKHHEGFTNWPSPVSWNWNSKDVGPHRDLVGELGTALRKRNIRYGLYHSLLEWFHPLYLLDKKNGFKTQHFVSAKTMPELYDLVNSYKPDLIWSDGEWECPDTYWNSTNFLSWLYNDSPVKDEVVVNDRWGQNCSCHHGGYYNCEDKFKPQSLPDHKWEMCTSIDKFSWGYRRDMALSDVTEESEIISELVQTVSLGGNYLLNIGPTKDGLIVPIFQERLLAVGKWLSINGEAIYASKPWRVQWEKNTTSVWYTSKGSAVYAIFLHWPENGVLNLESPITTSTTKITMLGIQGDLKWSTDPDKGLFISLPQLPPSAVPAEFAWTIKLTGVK

[3] = species: Bos taurus; assay: Inhibition of the enzyme beta-N-acetylglucosaminidase from bovine epididymis A was determined at 1 mM concentration of the compound; No inhibition
[4] = species: Bos taurus; assay: Inhibition of the enzyme beta-N-acetylglucosaminidase from bovine epididymis B was determined at 1 mM concentration of the compound; No inhibition
[5] = Inhibition of the enzyme Alpha-galactosidase from Aspergillus niger was determined at 1 mM concentration of the compound; No inhibition
[6] = biological target: T3, Alpha-N-acetylgalactosaminidase (Homo sapiens) (UniProt P17050); assay: Inhibition of the enzyme alpha-N-acetylgalactosaminidase from chicken liver was determined at 1 mM concentration of the compound; No inhibition; conditions: Gallus gallus, target entry is the homologue from another species
T3 sequence (whole entry): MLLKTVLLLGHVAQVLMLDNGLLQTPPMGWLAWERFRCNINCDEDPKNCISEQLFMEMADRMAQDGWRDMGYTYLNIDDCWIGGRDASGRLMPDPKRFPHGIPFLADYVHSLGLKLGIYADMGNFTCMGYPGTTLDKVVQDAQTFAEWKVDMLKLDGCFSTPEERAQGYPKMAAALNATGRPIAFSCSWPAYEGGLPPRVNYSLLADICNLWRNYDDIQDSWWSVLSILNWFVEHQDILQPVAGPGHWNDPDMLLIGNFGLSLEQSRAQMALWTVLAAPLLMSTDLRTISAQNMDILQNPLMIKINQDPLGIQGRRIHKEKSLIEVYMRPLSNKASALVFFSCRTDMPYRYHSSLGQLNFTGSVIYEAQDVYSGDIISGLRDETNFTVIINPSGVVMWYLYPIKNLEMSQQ

[7] = biological target: Beta-galactosidase (Escherichia coli) (UniProt Q8VNN2); assay: Inhibition of the enzyme beta-galactosidase from Escherichia coli was determined at 1 mM concentration of the compound; No inhibition
Sequence of Beta-galactosidase (Escherichia coli) (Q8VNN2 whole entry, looked up): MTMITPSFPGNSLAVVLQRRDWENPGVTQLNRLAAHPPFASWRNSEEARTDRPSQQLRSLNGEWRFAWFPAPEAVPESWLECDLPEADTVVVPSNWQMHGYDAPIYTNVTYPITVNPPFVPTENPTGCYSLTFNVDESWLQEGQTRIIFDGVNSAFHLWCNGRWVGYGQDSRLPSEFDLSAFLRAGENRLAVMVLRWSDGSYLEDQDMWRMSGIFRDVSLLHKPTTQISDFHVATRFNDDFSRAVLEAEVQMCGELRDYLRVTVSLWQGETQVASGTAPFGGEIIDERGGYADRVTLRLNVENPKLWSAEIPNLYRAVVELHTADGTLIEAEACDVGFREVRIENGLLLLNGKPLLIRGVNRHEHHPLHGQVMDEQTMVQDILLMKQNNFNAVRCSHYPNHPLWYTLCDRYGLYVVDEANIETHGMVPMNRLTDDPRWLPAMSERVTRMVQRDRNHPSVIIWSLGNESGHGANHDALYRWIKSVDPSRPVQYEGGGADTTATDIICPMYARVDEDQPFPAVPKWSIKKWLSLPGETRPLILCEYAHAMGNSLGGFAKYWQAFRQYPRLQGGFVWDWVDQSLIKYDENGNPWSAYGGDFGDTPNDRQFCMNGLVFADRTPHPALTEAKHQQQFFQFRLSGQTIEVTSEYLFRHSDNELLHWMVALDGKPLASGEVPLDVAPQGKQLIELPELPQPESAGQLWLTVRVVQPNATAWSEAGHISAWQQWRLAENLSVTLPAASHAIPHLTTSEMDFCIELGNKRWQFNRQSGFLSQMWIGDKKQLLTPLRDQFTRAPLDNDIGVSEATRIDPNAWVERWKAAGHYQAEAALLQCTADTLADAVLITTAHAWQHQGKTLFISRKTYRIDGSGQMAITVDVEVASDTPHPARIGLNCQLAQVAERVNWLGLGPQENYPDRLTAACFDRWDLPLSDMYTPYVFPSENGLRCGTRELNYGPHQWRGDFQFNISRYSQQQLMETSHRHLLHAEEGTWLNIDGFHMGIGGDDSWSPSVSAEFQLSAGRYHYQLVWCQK

[8] = Inhibition of the enzyme beta-galactosidase from jack beans was determined at 1 mM concentration of the compound; No inhibition
[9] = system: Oryza sativa; assay: Inhibition of the enzyme alpha-glucosidase (maltase) from rice was determined at 1 mM concentration of the compound; No inhibition
[10] = Inhibition of the enzyme Beta-mannosidase from Helix pomatia was determined at 1 mM concentration of the compound; No inhibition
[11] = Inhibition of the enzyme beta-galactosidase from Aspergillus oryzae was determined at 1 mM concentration of the compound; No inhibition
[12] = system: Saccharomyces cerevisiae; assay: Inhibition of the enzyme alpha-glucosidase (maltase) from yeast was determined at 1 mM concentration of the compound; No inhibition
[13] = biological target: T2, Tissue alpha-L-fucosidase (Homo sapiens); assay: Inhibition of the enzyme alpha-L-fucosidase from bovine epididymis was determined at 1 mM concentration of the compound; No inhibition; conditions: Bos taurus, target entry is the homologue from another species
[14] = biological target: Glucoamylase (Aspergillus niger) (UniProt P69328); assay: Inhibition of the enzyme amyloglucosidase from Aspergillus niger was determined at 1 mM concentration of the compound; No inhibition
Sequence of Glucoamylase (Aspergillus niger) (P69328 whole entry): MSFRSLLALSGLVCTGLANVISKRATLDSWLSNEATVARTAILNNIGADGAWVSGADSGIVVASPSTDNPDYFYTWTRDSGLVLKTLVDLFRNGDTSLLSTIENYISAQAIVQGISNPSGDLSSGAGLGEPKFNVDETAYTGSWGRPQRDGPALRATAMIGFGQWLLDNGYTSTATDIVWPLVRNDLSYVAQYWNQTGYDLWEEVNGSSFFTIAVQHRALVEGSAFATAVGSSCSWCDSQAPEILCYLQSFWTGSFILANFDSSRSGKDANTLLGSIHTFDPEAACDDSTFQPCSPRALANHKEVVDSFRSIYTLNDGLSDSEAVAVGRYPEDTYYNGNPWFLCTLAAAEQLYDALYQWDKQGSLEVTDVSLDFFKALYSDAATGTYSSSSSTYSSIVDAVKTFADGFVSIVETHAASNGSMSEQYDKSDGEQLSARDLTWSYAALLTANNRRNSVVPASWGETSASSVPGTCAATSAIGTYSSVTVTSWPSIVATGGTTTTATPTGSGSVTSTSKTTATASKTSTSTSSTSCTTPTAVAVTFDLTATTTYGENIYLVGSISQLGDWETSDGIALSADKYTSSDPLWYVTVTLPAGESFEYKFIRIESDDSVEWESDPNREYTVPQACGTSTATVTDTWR

[15] = system: Prunus dulcis; assay: Inhibition of the enzyme beta-glucosidase from almonds was determined at 1 mM concentration of the compound; No inhibition
[16] = Inhibition of the enzyme Alpha-galactosidase from Escherichia coli was determined at 1 mM concentration of the compound; No inhibition
[17] = system: jack; assay: Inhibition of the enzyme beta-N-acetylglucosaminidase from jack beans was determined at 1 mM concentration of the compound; No inhibition
[18] = Inhibition of the enzyme amyloglucosidase from Rhizopus mold was determined at 1 mM concentration of the compound; No inhibition
[19] = system: Caldicellulosiruptor saccharolyticus; assay: Inhibition of the enzyme beta-glucosidase from Caldocellum saccharolyticum was determined at 1 mM concentration of the compound; No inhibition
[20] = biological target: T4, Beta-galactosidase (Aspergillus niger) (UniProt P29853); assay: Inhibition of the enzyme beta-galactosidase from Aspergillus niger was determined at 1 mM concentration of the compound; No inhibition
T4 sequence (whole entry): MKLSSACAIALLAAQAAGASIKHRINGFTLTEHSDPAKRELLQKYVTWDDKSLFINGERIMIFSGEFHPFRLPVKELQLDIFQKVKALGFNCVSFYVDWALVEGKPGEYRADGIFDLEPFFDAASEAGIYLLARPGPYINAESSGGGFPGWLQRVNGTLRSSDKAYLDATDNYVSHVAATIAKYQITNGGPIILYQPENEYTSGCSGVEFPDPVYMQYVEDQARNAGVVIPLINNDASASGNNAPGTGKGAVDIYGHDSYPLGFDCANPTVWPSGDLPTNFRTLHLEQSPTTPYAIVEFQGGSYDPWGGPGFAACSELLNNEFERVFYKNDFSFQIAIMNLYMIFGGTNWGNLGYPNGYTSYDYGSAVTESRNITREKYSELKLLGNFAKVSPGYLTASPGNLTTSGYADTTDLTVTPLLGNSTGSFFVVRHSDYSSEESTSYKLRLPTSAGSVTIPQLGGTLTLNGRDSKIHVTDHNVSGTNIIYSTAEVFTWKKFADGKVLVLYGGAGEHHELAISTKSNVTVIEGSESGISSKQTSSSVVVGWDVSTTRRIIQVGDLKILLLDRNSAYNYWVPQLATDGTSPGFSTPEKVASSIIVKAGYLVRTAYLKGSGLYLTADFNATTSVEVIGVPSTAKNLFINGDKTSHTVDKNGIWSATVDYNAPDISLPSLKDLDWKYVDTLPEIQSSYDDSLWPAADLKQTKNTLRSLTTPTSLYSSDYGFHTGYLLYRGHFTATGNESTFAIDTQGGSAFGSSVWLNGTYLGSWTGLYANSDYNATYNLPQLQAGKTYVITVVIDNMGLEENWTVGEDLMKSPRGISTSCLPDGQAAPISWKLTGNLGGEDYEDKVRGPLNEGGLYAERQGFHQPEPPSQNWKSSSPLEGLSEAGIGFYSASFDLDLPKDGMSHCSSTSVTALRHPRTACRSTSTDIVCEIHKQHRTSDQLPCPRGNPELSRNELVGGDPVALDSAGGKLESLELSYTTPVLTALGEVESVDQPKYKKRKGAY

[21] = Inhibition of the enzyme alpha-mannosidase from almonds was determined at 1 mM concentration of the compound; No inhibition
[22] = system: Aspergillus niger; assay: Inhibition of the enzyme beta-D-xylosidase from Aspergillus niger was determined at 1 mM concentration of the compound; No inhibition
[23] = Inhibition of the enzyme Alpha-galactosidase from coffee beans was determined at 1 mM concentration of the compound; No inhibition; conditions: Coffea arabica
[24] = system: Saccharomyces cerevisiae; assay: Inhibition of the enzyme alpha-glucosidase (isomaltase) from baker yeast was determined at 1 mM concentration of the compound; No inhibition
[25] = Inhibition of the enzyme alpha-mannosidase from almonds was determined at 1 mM concentration of the compound; Moderate inhibition

| inhibition [1] | inhibition [2] | inhibition [3] | inhibition [4] | inhibition [5] | inhibition [6] | inhibition [7] | inhibition [8] | inhibition [9] | inhibition [10] | inhibition [11] | inhibition [12] | inhibition [13] | inhibition [14] | inhibition [15] | inhibition [16] | inhibition [17] | inhibition [18] | inhibition [19] | inhibition [20] | SMILES | other results |
| --- | --- | --- | --- | --- | --- | --- | --- | --- | --- | --- | --- | --- | --- | --- | --- | --- | --- | --- | --- | --- | --- |
| inactive | inactive | inactive | inactive | inactive | inactive | inactive | inactive | inactive | inactive | inactive | inactive | inactive | inactive | inactive | inactive | inactive | inactive | inactive | inactive | OCC1O[C@H](O)C(O)[C@@H]([C@H](O)C2NCC(O)C2O)C1O (stereo partly drawn) | inhibition [21]: inactive; inhibition [22]: inactive; inhibition [23]: inactive; inhibition [24]: inactive |
| inactive | inactive | inactive | inactive | inactive | inactive | inactive | inactive | inactive | inactive | inactive | inactive | inactive | inactive | inactive | inactive | inactive | inactive | inactive | inactive | OCC1O[C@H](O)[C@H](O)[C@@H]([C@H](O)C2NCC(O)C2O)C1O (stereo partly drawn) | inhibition [25]: 27%; inhibition [22]: inactive; inhibition [23]: inactive; inhibition [24]: inactive |
